{
  "source": "patent US20230043979A1",
  "about": "“PHOSPHODIESTERASE-4 INHIBITOR COMBINATIONS, METHODS OF MAKING, AND METHODS OF USE THEREOF” (VK RESEARCH ASSOCIATES INC., priority 2021, published 2023)",
  "origin": "cited, not measured here",
  "conditions": "for Median plasma/elimination Half-life (T1/2): Table 1, PDE4 inhibitors, in h; for half-life / median time to maximum concentration: oral administration",
  "data": [
    {"smiles": "O=C(Nc1c(Cl)cncc1Cl)c1ccc(OC(F)F)c(OCC2CC2)c1", "note": "[Roflumilast]", "values": [
      {"measurement": "Median plasma/elimination Half-life (T1/2)", "value": "17 - 30"},
      {"measurement": "half-life", "value": "17 to 30", "unit": "h"},
      {"measurement": "median time to maximum concentration", "value": "1 to 2", "unit": "h"}
    ]},
    {"smiles": "N#Cc1ccc(Oc2ccc3c(c2)COB3O)cc1", "note": "[Crisaborole]", "values": [
      {"measurement": "Median plasma/elimination Half-life (T1/2)", "value": "11.9 ± 8.3"}
    ]},
    {"smiles": "CC(C)C(=O)c1c(C(C)C)nn2ccccc12", "note": "[Ibudilast]", "values": [
      {"measurement": "Median plasma/elimination Half-life (T1/2)", "value": 19}
    ]},
    {"smiles": "COc1ccc(C2CNC(=O)C2)cc1OC1CCCC1", "note": "(stereo not shown) [Rolipram]", "values": [
      {"measurement": "Median plasma/elimination Half-life (T1/2)", "value": 3},
      {"measurement": "half-life", "value": "about 3 hours"},
      {"measurement": "median time to maximum concentration", "value": "about 30 minutes"}
    ]},
    {"smiles": "CCOc1cc([C@@H](CS(C)(=O)=O)N2C(=O)c3cccc(NC(C)=O)c3C2=O)ccc1OC", "note": "[Apremilast]", "values": [
      {"measurement": "Median plasma/elimination Half-life (T1/2)", "value": "6 to 9"}
    ]},
    {"smiles": "COc1ccc([C@]2(C#N)CC[C@@H](C(=O)O)CC2)cc1OC1CCCC1", "note": "[Cilomilast]", "values": [
      {"measurement": "Median plasma/elimination Half-life (T1/2)", "value": 7}
    ]}
  ]
}
